Reference: PMC4594923, “Food Polyphenols Fail to Cause a Biologically Relevant Reduction of COX-2 Activity” (PLoS ONE, 2015)
Entries after “also recorded” stand apart in the source; their conditions may differ.

Columns and labels:
MCP–1 = experiment: kidney MCP–1 mRNA (qPCR) in LPS induced sepsis in mice; assay type: in vivo, C57BL/6N mice; conditions: compound i. p. 100 mg/kg bw 2 h before LPS, 24 h after LPS, vs. LPS group
Procedure: (§1) Samples were stored at -80°C till further analysis. […] Plasma was generated by centrifugation at 4000 g at 4°C and stored at -80°C till further analysis.
(§2) Tissue sections were stored in RNA-later immediately after organ retrieval. Total RNA was extracted using the RNeasy mini kit system (Qiagen, Hilden, Germany) and transcribed using Superscript II Reverse transcriptase (Invitrogen). Quantitative (q) PCR was performed on […] (Roche Diagnostics, Penzberg, Germany) using FastStart Sybr-Green chemistry. Gene-specific primers for IL–6 (Quantitec QT00098875, Qiagen) and MCP–1 (Quantitec QT00167832, Qiagen) were used for the gene of interest and HPRT served as house keeping gene for normalization (Quantitec QT00166768, Qigaen). Quantification was carried out using qgene software.

IL–6 = experiment: kidney IL–6 mRNA (qPCR) in LPS induced sepsis in mice; assay type: in vivo, C57BL/6N mice; conditions: compound i. p. 100 mg/kg bw 2 h before LPS, 24 h after LPS
Procedure: as §1, §2

COX–2 [1] = conditions: cited from earlier work
[2] = i.p. 50 mg/kg bw, LPS 37.5 mg/kg bw, 28–42 h post LPS administration; cited from earlier work
COX–2 protein [3] = conditions: cited from earlier work
COX–2 protein [4] = experiment: COX–2 expression in HCA–7 cells (Western Blot); assay type: cell-based, human; conditions: 24 h, vs. control
[5] = single soy meal containing 3.6 μmol total genistein/kg bw; cited from earlier work
COX–2 [6] = molecular target: T1, COX–2 (Homo sapiens, UniProt P35354); experiment: PGE2 formation in HCA–7 cells (24 h, LC-MS); assay type: cell-based; conditions: for changes of PGE2 formation in HCA–7 cells: non-cytotoxic concentrations, 24 h
T1 sequence (P35354 18-604): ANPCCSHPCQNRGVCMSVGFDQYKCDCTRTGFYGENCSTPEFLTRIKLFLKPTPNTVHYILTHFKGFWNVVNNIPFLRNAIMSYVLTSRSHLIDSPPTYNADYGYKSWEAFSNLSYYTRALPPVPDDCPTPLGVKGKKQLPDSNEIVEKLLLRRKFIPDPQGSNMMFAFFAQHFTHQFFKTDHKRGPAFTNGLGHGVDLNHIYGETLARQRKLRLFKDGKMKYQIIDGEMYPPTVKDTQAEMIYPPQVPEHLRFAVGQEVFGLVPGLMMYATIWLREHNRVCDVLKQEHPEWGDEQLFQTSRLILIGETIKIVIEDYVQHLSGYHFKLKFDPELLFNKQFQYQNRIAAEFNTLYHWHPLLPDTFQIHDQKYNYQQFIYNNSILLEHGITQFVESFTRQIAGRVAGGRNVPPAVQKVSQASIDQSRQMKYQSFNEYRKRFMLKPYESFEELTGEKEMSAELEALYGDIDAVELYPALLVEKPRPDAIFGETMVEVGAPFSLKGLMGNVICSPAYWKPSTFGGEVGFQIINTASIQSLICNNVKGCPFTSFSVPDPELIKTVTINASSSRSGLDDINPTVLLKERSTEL

COX–2 [7] = molecular target: T1, COX–2; experiment: cell-free COX–2 enzyme assay (PGE2 formation, LC-MS); assay type: biochemical
[8] = clinical chemistry in plasma (urea, creatinine, AST, ALT, LDH) in LPS induced sepsis in mice; assay type: in vivo, C57BL/6N mice; conditions: compound i. p. 100 mg/kg bw 2 h before LPS, 24 h after LPS
COX–2 protein [9] = experiment: COX–2 expression in LPS stimulated primary human monocytes (Western Blot); conditions: 24 h, vs. control

In the case of O=c1cc(-c2ccc(O)cc2)oc2cc(O)cc(O)c12 [Apigenin, apigenin], the “kidney MCP–1 mRNA levels” value (MCP–1) is given as “did not see an effect”, the “kidney IL–6 mRNA expression” value (IL–6; vs. LPS group) is given as “did not see an effect” and the IC50 (COX–2 [1]; read-out: IC50, RAW 264.7 cells) is given as […]. The mortality [2] was “reduced mortality” and the “COX–2 (protein) levels, RAW 264.7 cells” value (COX–2 protein [3]) was “reduced COX–2 levels”.

In the case of O=c1c(-c2ccc(O)cc2)coc2cc(O)cc(O)c12 [Genistein, genistein], the “COX-2 Expression, HCA-7 cell line” value (COX–2 protein [4]) is given as 100 μM:COX–2 ↓, the “COX-2 Expression, HCA-7 cell line” value (COX–2 protein [4]; listed as genistein) is given as “decreased COX–2 expression” and the “maximal plasma concentrations (free and conjugated form)” value [5] is given as 4 µM. For the same molecule, the “PGE2 formation / levels, RAW 264.7 cells” value (COX–2 [1]) was “reduced PGE2 formation”, the inhibition at 100 µM (COX–2 [6]; HCA-7, 100 μM, read-out: inhibition, HCA-7 cell line) was 54% and the “changes of PGE2 formation in HCA–7 cells” value (COX–2 [6]) was “affected”. The “effect on COX–2 dependent PGE2 formation, cell-free enzyme assay” value (COX–2 [7]) was “no effect”, the “IC50 (95% CI), COX–2 enzyme assay” value (COX–2 [7]; calculated based on PGE2, n = 3) was “no effect (up to 30 μM)” and the “plasma ALT activity” value [8] was “elevated”. For the same molecule, the “plasma AST activity” value [8] was “elevated” and the “COX–2 (protein) levels, RAW 264.7 cells” value (COX–2 protein [3]) was “reduced”.

With Oc1ccc(/C=C/c2cc(O)cc3c2[C@@H](c2cc(O)cc(O)c2)[C@H](c2ccc(O)cc2)O3)cc1 [ε-Viniferin, ε-viniferin] the “COX-2 Expression, HCA-7 cell line” value (COX–2 protein [4]) was “no effect (up to 1 μM)”, the “further increase of kidney IL–6 mRNA expression in comparison to LPS group” value (IL–6) was 28 fold and the “IC50 (95% CI), HCA-7 cell line” value (COX–2 [6]; calculated based on PGE2, n = 3, 24 h) was “no effect (up to 1 μM)”. For the same molecule, the “changes of PGE2 formation in HCA–7 cells” value (COX–2 [6]) was “no or only slight”, the “effect on COX–2 dependent PGE2 formation, cell-free enzyme assay” value (COX–2 [7]) was “dose-dependently decreased; also recorded: inhibited” and the IC50 (COX–2 [7]; calculated based on PGE2, n = 3, read-out: IC50 (95% CI), COX–2 enzyme assay) was 11 µM. For the same molecule, the “plasma ALT activity” value [8] was “elevated; also recorded: moderate elevation”, the “plasma AST activity” value [8] was “elevated; also recorded: moderate elevation” and the “plasma LDH activity” value [8] was “moderate elevation”. For the same molecule, the plasma creatinine level [8] was “elevation”, the plasma urea level [8] was “elevation” and the “COX-2 Expression, primary monocytes” value (COX–2 protein [9]) was “no effect (up to 1 μM)”.
